Test results from US6407108B1, “1,2,4-triazolo(4,3-b)pyrido(3,2-d)pyridazine derivatives and pharmaceutical compositions containing them” (Almirall Prodesfarma, S.A., priority 1997, dated 2002).

What was measured:
[1] = biological target: cyclic nucleotide phosphodiesterase 4 from guinea-pig hearts; experiment: Inhibition of cyclic nucleotide phosphodiesterase 4 (96-well microtiter plates, Verghese et al.); assay type: biochemical; conditions: PDE 4 from guinea-pig hearts; read-out: PDE4 IC50
Experimental: The inhibition of cyclic nucleotide phosphodiesterase 4 from guinea-pig hearts was performed using 96-well microtiter plates as described by Verghese et al., (Molecular Pharmacology, 47, 1164-1171 (1995)).

Row | Compound | melting point [°C] | IC50 [1] [nM]
1 | CC(C)Cc1nnc2c3cccnc3c(-c3ccccc3)nn12 [Compound 7] | 179.7 | 300
2 | c1ccc(-c2nn3c(C4CC4)nnc3c3cccnc23)cc1 [Compound 12, 3-cyclopropyl-6-phenyl-1,2,4-triazolo[4,3-b]pyrido[3,2-d]pyridazine] | 244.3 | 3000
3 | CC(C)Cc1nnc2c3cccnc3c(-c3ccc(F)cc3)nn12 [Compound 31, 6-(4-fluorophenyl)-3-isobutyl-1,2,4-triazolo[4,3-b]pyrido[3,2-d]pyridazine] | 135 | 200
4 | CC(C)Cc1nnc2c3ccccc3c(-c3ccccc3)nn12 [Compound A, 3-isobutyl-6-phenyl-1,2,4-triazolo[3,4-a]phthalazine, reference compound] |  | 10000
5 | CCCCc1nnc2c3cccnc3c(-c3ccccc3)nn12 [Compound 6] | 162.9 | 2000
6 | CC(C)(C)c1nnc2c3cccnc3c(-c3ccccc3)nn12 [Compound 8, 3-t-butyl-6-phenyl-1,2,4-triazolo[4,3-b]pyrido[3,2-d]pyridazine] | 188.1 | 

More lines, now with the values ahead:

Row | melting point [°C] | IC50 [1] [nM] | Compound
7 | 136 | 100 | Clc1cccc(-c2nn3c(CC4CC4)nnc3c3cccnc23)c1 [Compound 60]
8 | 145 | 700 | Fc1cccc(-c2nn3c(CC4CCCC4)nnc3c3cccnc23)c1 [Compound 47]
9 | 150 | 200 | O=[N+]([O-])c1cccc(-c2nn3c(CC4CCC4)nnc3c3cccnc23)c1 [Compound 113, 3-cyclobutylmethyl-6-(3-nitrophenyl)-1,2,4-triazolo[4,3-b]pyrido[3,2-d]pyridazine]
10 | 164 | 700 | O=[N+]([O-])c1cccc(-c2nn3c(CC4CC4)nnc3c3cccnc23)c1 [Compound 112, 3-cyclopropylmethyl-6-(3-nitrophenyl)-1,2,4-triazolo[4,3-b]pyrido[3,2-d]pyridazine]
11 | 113 | 200 | CC(C)Cc1nnc2c3cccnc3c(-c3cccc(Cl)c3)nn12 [Compound 55]
12 | 156 | 2000 | Clc1cccc(-c2nn3c(CC4CCC4)nnc3c3cccnc23)c1 [Compound 61]
13 | 178 | 40 | CC(C)Cc1nnc2c3cccnc3c(-c3cccc([N+](=O)[O-])c3)nn12 [Compound 109]
